Assay [1] deals with recombinant guanylate cyclase reporter cell line. Put plainly: Effect on a recombinant guanylate cyclase reporter cell line. It is filed as cell-based. The note with it: recombinant guanylate cyclase reporter cell line (Wunder et al. 2005); read-out: MEC (minimum effective concentration). On the procedure:
B-2. Effect on a Recombinant Guanylate Cyclase Reporter Cell Line
The cellular activity of the compounds according to the invention is determined using a recombinant guanylate cyclase reporter cell line, as described in F. Wunder et al., Anal. Biochem. 339, 104-112 (2005).

The subject of a further assay is rabbit aorta rings. Put plainly: Vasorelaxant action in vitro (phenylephrine-contracted rabbit aortic rings). The note with it: Oryctolagus cuniculus, phenylephrine-induced contraction, organ bath 37° C., 0.1% DMSO, read-out: IC50 (concentration needed to reduce the magnitude of the control contraction by 50%). The protocol: B-1. Vasorelaxant Action In Vitro
Rabbits are stunned by a blow to the neck and exsanguinated. The aorta is removed, freed from adhering tissue and divided into rings of a width of 1.5 mm. The rings are placed individually under an initial tension in 5 ml organ baths with Krebs-Henseleit solution which is at 37° C., is gassed with carbogen and has the following composition (in each case mM): sodium chloride: 119; potassium chloride: 4.8; calcium chloride dihydrate: 1; magnesium sulfate heptahydrate: 1.4; potassium dihydrogenphosphate: 1.2; sodium bicarbonate: 25; glucose: 10. The contractile force is determined with Statham UC2 cells, amplified and digitalized using A/D transducers (DAS-1802 HC, Keithley Instruments Munich), and recorded in parallel on linear recorders. To obtain a contraction, phenylephrine is added to the bath cumulatively in increasing concentration. After several control cycles, the substance to be investigated is added in each further run in increasing dosage in each case, and the height of the contraction achieved is compared with the height of the contraction reached in the last preceding run. This is used to calculate the concentration needed to reduce the magnitude of the control value by 50% ([…]). The standard administration volume is 5 μl; the DMSO content in the bath solution corresponds to 0.1%.

Structures are written as SMILES.

Consider `CC1(C)C(=O)Nc2nc(-c3nn(CCC(F)(F)C(F)F)c4ncc(F)cc34)nnc21` [Example 7, 3-[5-Fluoro-1-(3,3,4,4-tetrafluorobutyl)-1H-pyrazolo[3,4-b]pyridin-3-yl]-7,7-dimethyl-5,7-dihydro-6H-pyrrolo[2,3-e][1,2,4]triazin-6-one], for which the minimal effective concentration in assay [1] worked out at 0.3 µM.

Take `CC1(C)C(=O)Nc2nc(-c3nn(CCC(F)(F)C(F)(F)F)c4ncc(F)cc34)nnc21` [Example 2, 3-[5-Fluoro-1-(3,3,4,4,4-pentafluorobutyl)-1H-pyrazolo[3,4-b]pyridin-3-yl]-7,7-dimethyl-5,7-dihydro-6H-pyrrolo[2,3-e][1,2,4]triazin-6-one]: the minimal effective concentration in assay [1] worked out at 0.1 µM. In the assay on rabbit aorta rings, the IC50 stood at 129 nM. For `CC1(C)C(=O)Nc2nc(-c3nn(CC4CCCC4)c4ncc(F)cc34)ncc21` [Example 5, 2-[1-(Cyclopentylmethyl)-5-fluoro-1H-pyrazolo[3,4-b]pyridin-3-yl]-5,5-dimethyl-5,7-dihydro-6H-pyrrolo[2,3-d]pyrimidin-6-one], the minimal effective concentration in assay [1] amounted to 0.1 µM. For the same compound, the IC50 in the assay with rabbit aorta rings was 23 nM. Turning to `CC1(C)C(=O)Nc2nc(-c3nn(CCC(F)(F)C(F)(F)F)c4ncc(F)cc34)ncc21` [Example 4, 2-[5-Fluoro-1-(3,3,4,4,4-pentafluorobutyl)-1H-pyrazolo[3,4-b]pyridin-3-yl]-5,5-dimethyl-5,7-dihydro-6H-pyrrolo[2,3-d]pyrimidin-6-one], the minimal effective concentration in assay [1] was 0.03 µM. Besides, the IC50 with rabbit aorta rings turned out to be 101 nM.

Take `CC1(C)C(=O)Nc2nc(-c3nn(CCC(F)(F)C(F)(F)F)c4ncccc34)ncc21` [Example 3, 5,5-Dimethyl-2-[1-(3,3,4,4,4-pentafluorobutyl)-1H-pyrazolo[3,4-b]pyridin-3-yl]-5,7-dihydro-6H-pyrrolo[2,3-d]pyrimidin-6-one]: the minimal effective concentration in assay [1] was found to be 0.03 µM. Besides, in the assay on rabbit aorta rings, the IC50 came to 46 nM. For the compound `CC1(C)C(=O)Nc2nc(-c3nn(CCC(F)(F)C(F)(F)F)c4ncccc34)nnc21` [Example 1, 7,7-Dimethyl-3-[1-(3,3,4,4,4-pentafluorobutyl)-1H-pyrazolo[3,4-b]pyridin-3-yl]-5,7-dihydro-6H-pyrrolo[2,3-e][1,2,4]triazin-6-one], in assay [1], the minimal effective concentration was 0.3 µM. Besides, the IC50 in the assay with rabbit aorta rings is 263 nM. On to `CC1(C)C(=O)Nc2nc(-c3nn(CC4CC(F)(F)C4)c4ncc(F)cc34)nnc21` [Example 8, 3-{1-[(3,3-Difluorocyclobutyl)methyl]-5-fluoro-1H-pyrazolo[3,4-b]pyridin-3-yl}-7,7-dimethyl-5,7-dihydro-6H-pyrrolo[2,3-e][1,2,4]triazin-6-one], for which the minimal effective concentration in assay [1] is 3 µM.

Take `CC1(C)C(=O)Nc2nc(-c3nn(CC4CCCC4)c4ncc(F)cc34)nnc21` [Example 6, 3-[1-(Cyclopentylmethyl)-5-fluoro-1H-pyrazolo[3,4-b]pyridin-3-yl]-7,7-dimethyl-5,7-dihydro-6H-pyrrolo[2,3-e][1,2,4]triazin-6-one]: in assay [1], the minimal effective concentration came to 0.1 µM. Besides, the IC50 in the assay on rabbit aorta rings stood at 102 nM.

The record behind these values is patent US9090610B2, “Fluoroalkyl-substituted pyrazolopyridines and use thereof” (BAYER INTELLECTUAL PROPERTY GMBH, priority 2011, dated 2015).
